The values that follow come from patent US11046691B1 (IDEAYA BIOSCIENCES, INC., priority 2018, dated 2021).

The test deals with hMAT2A (Homo sapiens (Human), UniProt P31153). In words: Malachite Green Assay (MAT2A enzyme inhibition). Type of test: biochemical. The note with it: hMAT2A 50 nM, substrates 500 uM each, 1 hour. As to the method: The ability of the compound of present disclosure to inhibit MAT2A enzyme was determined using the Malachite Green or Phosphate Sensor Fluorescence Assay described below.
Sequence of hMAT2A (P31153 whole entry): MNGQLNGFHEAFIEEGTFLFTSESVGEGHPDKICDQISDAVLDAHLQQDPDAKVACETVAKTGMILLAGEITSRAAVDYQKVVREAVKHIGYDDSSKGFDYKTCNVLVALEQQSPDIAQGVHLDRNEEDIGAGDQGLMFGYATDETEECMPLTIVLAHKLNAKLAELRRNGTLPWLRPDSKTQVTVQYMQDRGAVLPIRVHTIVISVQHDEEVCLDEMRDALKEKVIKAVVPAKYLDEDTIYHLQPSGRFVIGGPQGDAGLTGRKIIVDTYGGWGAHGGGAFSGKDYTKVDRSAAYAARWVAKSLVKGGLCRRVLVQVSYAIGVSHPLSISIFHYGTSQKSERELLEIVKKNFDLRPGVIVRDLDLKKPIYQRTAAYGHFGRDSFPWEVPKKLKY
L-methionine Substrate: Alfa Aesar catalog #J61904
ATP Substrate: Alfa Aesar cat #J60336
Malachite Green Detection Reagent: Millipore Sigma catalog #MAK307-1KT
Assay buffer: 50 mM Tris, pH 7.5/50 mM KCl/10 mM MgCl2/0.01% Brij-35/1 mM DTT/0.1% BGG
The plate was centrifuged at 1000 rpm for 1 minute and then incubated at room temperature for 1 hour. 5 μL of malachite green detection reagent was added to all the test wells and the plate was centrifuged at 1000 rpm for 1 minute and then incubated at room temperature for 30 minutes. The plate was read for absorbance at 620 nm on a plate reader (e.g., Infinite M1000).
On to `CN(C)c1nc(=O)n(-c2cc(O)cc(F)c2)c2cc(Cl)ccc12` [Example 37, 4-(dimethylamino)-7-chloro-1-(5-fluoro-3-hydroxyphenyl)hydro-quinazolin-2-one], for which the IC50 was < 200 nM.

Take `O=c1nc(N2CCC2)c2ccc(Cl)cc2n1-c1cc(O)cc(F)c1` [Example 38, 4-azetidinyl-7-chloro-1-(5-fluoro-3-hydroxy-phenyl)hydroquinazolin-2-one]: the IC50 was < 200 nM. For `CN(c1nc(=O)n(-c2cccc(F)c2)c2cc(Cl)ccc12)C1CC1` [Example 39, 7-chloro-4-(cyclopropylmethylamino)-1-(3-fluorophenyl)hydroquinazolin-2-one], the IC50 was < 200 nM. `CN(C)c1nc(=O)n(-c2ccccc2)c2c(Cl)c(Cl)ccc12` [Example 42, 7,8-dichloro-4-(dimethylamino)-1-phenylquinazolin-2(1H)-one] gave an IC50 of 200 to 500 nM. The molecule `Cc1c(Cl)ccc2c(N(C)C)nc(=O)n(-c3ccccc3)c12` [Example 43, 7-chloro-4-(dimethylamino)-8-methyl-1-phenyl-quinazolin-2(1H)-one] showed an IC50 of 1000 to 10000 nM.

For the molecule `CNc1nc(=O)n(-c2ccccc2)c2cc(C)ccc12` [Example 44, 7-methyl-4-(methylamino)-1-phenyl-quinazolin-2(1H)-one], the IC50 is < 200 nM. For `CNc1nc(=O)n(-c2ccccc2)c2cc(C3CC3)ccc12` [Example 45, 7-cyclopropyl-4-(methylamino)-1-phenylquinazolin-2(1H)-one], the 50% inhibitory concentration (IC50) was < 200 nM. As for `CNc1nc(=O)n(-c2cccc(O)c2)c2cc(Cl)ccc12` [Example 46, 7-chloro-1-(3-hydroxyphenyl)-4-(methylamino)-hydroquinazolin-2-one], the IC50 was < 200 nM. With `CNc1nc(=O)n(-c2cccc(CCO)c2)c2cc(Cl)ccc12` [Example 47, 7-chloro-1-[3-(2-hydroxyethyl)phenyl]-4-(methylamino)-hydroquinazolin-2-one], the IC50 was < 200 nM. Regarding `CNc1nc(=O)n(-c2cccc(CCCO)c2)c2cc(Cl)ccc12` [Example 48, 7-chloro-1-[3-(3-hydroxypropyl)-phenyl]-4-(methylamino)hydro-quinazolin-2-one], the IC50 is < 200 nM. On to `CNc1nc(=O)n(-c2ccccc2)c2cc(OC)ccc12` [Example 49, 7-methoxy-4-(methylamino)-1-phenyl-quinazolin-2(1H)-one], for which the IC50 is < 200 nM. Turning to `CNc1nc(=O)n(-c2ccccc2)c2cc(C#N)ccc12` [Example 50, 4-(methylamino)-2-oxo-1-phenyl-1,2-dihydro-quinazoline-7-carbonitrile], the half-maximal inhibitory concentration (IC50) is < 200 nM. Regarding `CNc1nc(=O)n(-c2ccccc2)c2cc(C(F)(F)F)ccc12` [Example 51, 4-(methylamino)-1-phenyl-7-(trifluoro-methyl)-quinazolin-2(1H)-one], the half-inhibitory concentration (IC50) was < 200 nM.

Take `CN(C)c1nc(=O)n(-c2cccc(NS(C)(=O)=O)c2)c2cc(Cl)ccc12` [Example 52, N-(3-(7-chloro-4-(dimethylamino)-2-oxoquinazolin-1 (2H)-yl)phenyl)-methanesulfonamide]: the concentration for half-maximal inhibition (IC50) is < 200 nM. For `CN(C)c1nc(=O)n(-c2cccc(O)c2)c2cc(Cl)ccc12` [Example 54], the half-maximal inhibitory concentration (IC50) is < 200 nM. `CNc1nc(=O)n(-c2cccc(C)c2)c2cc(Cl)ccc12` [Example 55]: the IC50 is < 200 nM.

Consider `CNc1nc(=O)n(-c2cccc(Cl)c2)c2cc(Cl)ccc12` [Example 56, 7-Chloro-1-(3-chlorophenyl)-4-(methylamino)hydroquinazolin-2-one], for which the half-inhibitory concentration (IC50) was < 200 nM.

On to `CNc1nc(=O)n(-c2ccccc2F)c2cc(Cl)ccc12` [Example 57, 7-chloro-1-(2-fluorophenyl)-4-(methylamino)quinazolin-2(1H)-one], for which the IC50 is < 200 nM. With `Nc1nc(=O)n(-c2ccccc2)c2cc(Cl)ccc12` [Example 59, 4-amino-7-chloro-1-phenylquinazolin-2(1H)-one] the figure was < 200 nM. Take `CN(C)c1nc(=O)n(-c2cccc(Br)c2)c2cc(Cl)ccc12` [Example 60, 1-(3-bromophenyl)-7-chloro-4-(dimethylamino)quinazolin-2(1H)-one]: the IC50 is < 200 nM. With `CNc1nc(=O)n(-c2cccc(F)c2)c2cc(Cl)ccc12` [Example 61, 7-chloro-1-(3-fluorophenyl)-4-(methylamino)quinazolin-2(1H)-one], the half-maximal inhibitory concentration (IC50) is < 200 nM.

`COc1nc(=O)n(-c2ccccc2)c2cc(Cl)ccc12` [Example 62, 7-chloro-4-methoxy-1-phenyl-quinazolin-2(1H)-one] registered an IC50 of 200 to 500 nM. Take `CN(C)CCN(C)c1nc(=O)n(-c2ccccc2)c2cc(Cl)ccc12` [Example 63, 7-chloro-4-((2-(dimethylamino)ethyl)-(methyl)-amino)-1-phenylquinazolin-2(1H)-one]: the IC50 fell in the range of 1000 to 10000 nM. In the case of `CN(C)CCNc1nc(=O)n(-c2ccccc2)c2cc(Cl)ccc12` [Example 64, 7-chloro-4-((2-(dimethylamino)ethyl)-amino)-1-phenylquinazolin-2(1H)-one], the half-maximal inhibitory concentration (IC50) was 1000 to 10000 nM. Take `O=c1nc(N2CCCCC2)c2ccc(Cl)cc2n1-c1ccccc1` [Example 66, 7-chloro-1-phenyl-4-(piperidin-1-yl)-quinazolin-2(1H)-one]: the concentration for half-maximal inhibition (IC50) was < 200 nM.

As to `O=c1nc(N2CCCC2)c2ccc(Cl)cc2n1-c1ccccc1` [Example 67, 7-chloro-1-phenyl-4-(pyrrolidin-1-yl)-quinazolin-2(1H)-one], the 50% inhibitory concentration (IC50) is < 200 nM. Regarding `CNc1nc(=O)n(-c2ccccc2)c2cc(Cl)cc(OC)c12` [Example 70, 7-chloro-5-methoxy-4-(methylamino)-1-phenylquinazolin-2(1H)-one], the half-inhibitory concentration (IC50) is < 200 nM. Next, `CNc1nc(=O)n(-c2ccccc2)c2cc(Cl)c(OC)cc12` [Example 73, 7-chloro-6-methoxy-4-(methylamino)-1-phenylquinazolin-2(1H)-one]: < 200 nM; `O=c1nc(N2CC(O)C2)c2ccc(Cl)cc2n1-c1ccccc1` [Example 74, 7-chloro-4-(3-hydroxyazetidin-1-yl)-1-phenylquinazolin-2(1H)-one]: < 200 nM. Regarding `CN(C)c1nc(=O)n(-c2cccc(CCOc3ccccc3)c2)c2cc(Cl)ccc12` [Example 75, 7-chloro-4-(dimethylamino)-1-(3-(2-phenoxyethyl)phenyl)quinazolin-2(1H)-one], the IC50 is < 200 nM.

For `COc1cccc(-n2c(=O)nc(N(C)C)c3ccc(Cl)cc32)c1` [Example 76], the IC50 is < 200 nM. As to `CN(C)c1nc(=O)n(-c2cccc(CO)c2)c2cc(Cl)ccc12` [Example 77], the IC50 is < 200 nM. Consider `CN(C)c1nc(=O)n(-c2cccc(C#N)c2)c2cc(Cl)ccc12` [Example 81, 3-[4-(dimethylamino)-7-chloro-2-oxohydroquinazolinyl]benzenecarbo-nitrile], for which the half-inhibitory concentration (IC50) is < 200 nM. Next, `N#CC1CN(c2nc(=O)n(-c3cccc(F)c3)c3cc(Cl)ccc23)C1` [Example 82, 1-(7-chloro-1-(3-fluorophenyl)-2-oxo-1,2-dihydroquinazolin-4-yl)azetidine-3-carbonitrile]: < 200 nM.
